The target of data set [1] is T1, human androgen receptor (hAR) (Homo sapiens, UniProt P10275).
T1 construct: expressed in transfected cells; host or cells: Chinese hamster ovary cells (CHO)
T1 sequence (P10275 1-920): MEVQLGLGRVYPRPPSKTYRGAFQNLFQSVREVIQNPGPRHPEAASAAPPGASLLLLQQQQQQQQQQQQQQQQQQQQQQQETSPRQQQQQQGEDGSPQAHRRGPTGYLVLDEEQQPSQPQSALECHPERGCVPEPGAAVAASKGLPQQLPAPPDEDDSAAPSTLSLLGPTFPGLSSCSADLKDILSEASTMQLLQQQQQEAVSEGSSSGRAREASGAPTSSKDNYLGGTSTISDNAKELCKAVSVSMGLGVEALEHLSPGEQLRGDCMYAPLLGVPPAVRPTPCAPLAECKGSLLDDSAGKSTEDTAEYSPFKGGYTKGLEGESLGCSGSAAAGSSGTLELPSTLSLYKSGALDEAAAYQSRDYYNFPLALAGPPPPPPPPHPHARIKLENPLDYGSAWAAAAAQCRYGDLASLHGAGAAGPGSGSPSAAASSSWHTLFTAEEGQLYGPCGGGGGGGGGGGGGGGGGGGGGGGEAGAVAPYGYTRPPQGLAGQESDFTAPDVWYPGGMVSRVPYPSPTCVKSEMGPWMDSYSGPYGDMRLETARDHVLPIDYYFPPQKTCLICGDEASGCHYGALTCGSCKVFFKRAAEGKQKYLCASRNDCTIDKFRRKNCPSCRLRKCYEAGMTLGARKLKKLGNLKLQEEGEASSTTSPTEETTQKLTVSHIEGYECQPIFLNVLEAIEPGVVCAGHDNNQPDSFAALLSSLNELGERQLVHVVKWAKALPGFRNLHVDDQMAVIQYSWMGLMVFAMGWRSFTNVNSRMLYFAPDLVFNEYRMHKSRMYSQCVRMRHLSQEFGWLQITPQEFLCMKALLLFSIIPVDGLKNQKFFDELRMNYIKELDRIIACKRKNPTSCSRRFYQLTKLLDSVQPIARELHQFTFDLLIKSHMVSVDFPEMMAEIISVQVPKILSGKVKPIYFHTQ
Put plainly: transactivative androgen agonistic activity, CHO cells transfected with hAR, MMTV-luciferase. It counts as cell-based. Details: Androgenic Activity (%): concentration or dose not given beside the values. Particulars: for Androgenic Activity (%): compared with 5α-dihydrotestosterone, CHO-hAR, 16 h, 37° C. The method, then:
The transactivative androgen agonistic activity of the compounds of the invention was measured in Chinese hamster ovary cells (CHO) transfected with the human androgen receptor (hAR), in combination with a mouse mammary tumor virus (MMTV), and luciferase receptor gene (incubation time 16 h, temperature 37° C.) and compared with the activity of 5α-dihydrotestosterone [according to the procedure described by Schoonen, W. G. E. J. et aL., Analyt. Biochem. 261, 222-224 (1998)].

The subject of a further data set is serum LH. Put plainly: LH suppression assay in mature male castrated rats, p.o. It counts as in vivo, rat. Particulars: for LH-Suppression MAD po: minimal active dose suppressing serum LH for 65%, castrated male rats, p.o. 4 days daily; for oral activity (in words): statement in the introduction, test not named. On the procedure: The in vivo potency of the compounds of the invention was determined in a mature male castrated rat model.
In this model serum LH is high (about 20× fold higher than with intact rats, due to the absence of the negative feedback of testicular testosterone). These rats are p.o. treated for 4 days daily with a given compound of the invention in a suspension fluid of arachis oil or arachis oil +5 or 10% ethanol. Before dosing and 3 hours after the last oral dose blood is collected via tail vein and in the serum LH is determined. Potency (p.o.) of the compounds of the invention (minimal active dose, MAD) is expressed as the amount (mg/kg) of a compound of the invention which suppresses serum LH for 65% (with a 95% confidence interval).
The rat LH Time-Resolved Immuno Fluorometric Assay (TR-IFMA) has been developed in house using home made reagents, a monoclonal catching antibody directed against the β-subunit of human chorion gonadotrophin (hCG, which cross reacts with rat β-subunit) and a biotin labelled detecting antibody (rabbit polydonal antibody directed against the alfa-subunit of recombinant rat LH). Recombinant rat LH was prepared according to known methods, e.g., the method described by Hakola et aL., Molecular & Cellular Endocrinology (1997), 128, 47-56. In this two-site-IFMA, only intact rat LH is determined by a final incubation with streptavidin-europium. The detection in the IFMA is based on fluorescence of the lanthanide europium during a relative long excitation period. The concentration range of rat LH standard is 0.001-10 ng/ml, for optimal accuracy measurements of serum LH serum samples were diluted 8-times with assay buffer (J. I. van Casteren et al., Biol. Reprod. (2000), 62, 886-894).

A short description of data set [2]: Anti-osteoporosis test in mature male castrated rats (6 weeks treatment). In kind it is in vivo, rat. Particulars: for Mean proportional difference in bone density: placebo intact 100%, placebo orx 0%; for BMD (gmean ± sem): orx male rats, trabecular BMD of femur. The method, then: In this test the oral efficacy of a compound of the invention for the prevention of castration-induced trabecular bone mineral density (BMD) loss in male rats was evaluated.
Mature male Wistar rats (350-400 g) were used. Orchidectomy (orx) or sham operation was performed under isoflurane anaesthesia. After recovery of anaesthesia, within 24 hours, rats were treated once daily for 6 weeks p.o. with different doses of the compounds of the invention or vehicle only (placebo intact, placebo orx) with a volume of 1 ml/kg (n=5). One day after the last administration autopsy is performed and the right femur is dissected out. Trabecular bone mineral density of the metaphysal part of the femur was measured with a pQCT (peripheral Quantitative Computed Tomography machine; XCT 960A, Stratec, Birkenfeld, Germany).

Data set [3] deals with T2, human progesterone receptor B (hPRB) (Homo sapiens, UniProt P06401).
T2 construct: expressed in transfected cells; host or cells: Chinese hamster ovary cells (CHO)
T2 sequence (P06401 1-933): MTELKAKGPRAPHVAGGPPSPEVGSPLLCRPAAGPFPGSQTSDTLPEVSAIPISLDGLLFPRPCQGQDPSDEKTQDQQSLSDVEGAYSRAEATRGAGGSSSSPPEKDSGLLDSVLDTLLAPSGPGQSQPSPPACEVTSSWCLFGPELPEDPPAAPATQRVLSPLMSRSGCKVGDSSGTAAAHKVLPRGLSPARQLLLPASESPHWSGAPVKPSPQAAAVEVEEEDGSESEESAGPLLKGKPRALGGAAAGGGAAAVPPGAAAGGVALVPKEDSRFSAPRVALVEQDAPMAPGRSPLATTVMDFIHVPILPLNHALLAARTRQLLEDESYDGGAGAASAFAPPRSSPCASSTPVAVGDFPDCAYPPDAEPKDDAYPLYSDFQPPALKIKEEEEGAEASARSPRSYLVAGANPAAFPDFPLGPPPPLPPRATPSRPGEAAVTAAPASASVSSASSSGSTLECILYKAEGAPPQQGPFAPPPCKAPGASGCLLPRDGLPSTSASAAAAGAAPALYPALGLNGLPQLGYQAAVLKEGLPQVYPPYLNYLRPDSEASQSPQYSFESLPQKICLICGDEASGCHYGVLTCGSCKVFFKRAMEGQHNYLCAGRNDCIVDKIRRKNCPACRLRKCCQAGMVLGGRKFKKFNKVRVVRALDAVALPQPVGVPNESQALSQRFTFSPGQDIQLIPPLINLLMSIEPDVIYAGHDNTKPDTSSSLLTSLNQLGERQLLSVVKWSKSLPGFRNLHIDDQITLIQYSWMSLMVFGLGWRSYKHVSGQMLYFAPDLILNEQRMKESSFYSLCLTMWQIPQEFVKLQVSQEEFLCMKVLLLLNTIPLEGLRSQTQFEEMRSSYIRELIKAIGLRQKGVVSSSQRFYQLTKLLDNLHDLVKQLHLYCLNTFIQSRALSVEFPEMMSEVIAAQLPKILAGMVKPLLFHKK
Put plainly: transactivative progestagenic agonistic activity, CHO cells transfected with hPRB, MMTV-luciferase. It counts as cell-based. Further details: Progestational Activity (%): concentration or dose not given beside the values. Particulars: for Progestational Activity (%): compared with (16α)-16-ethyl-21-hydroxy-19-norpregn-4ene-3,20-dione, CHO-hPRB, 16 h, 37° C.; for progestagenic activity (in words): statement in the introduction, test not named. On the procedure:
The transactivative progestagenic agonistic activity of the compounds of the invention was measured in Chinese hamster ovary cells (CHO) transfected with the human progesterone receptor B (hPRB), in combination with a mouse mammary tumor virus (MMTV), and luciferase receptor gene (incubation time 16 h, temperature 37° C.) and compared with the activity of (16α)-16-ethyl-21-hydroxy-19-norpregn-4ene-3,20-dione [according to the procedure described by Schoonen, W. G. E. J. et al., Analyt. Biochem. 261, 222-224 (1998)].

For data set [4] the following is noted: prior art statement; cited from earlier work.
The conditions of data set [5]: J. Seaman, Toxicologic Pathology (1985); cited from earlier work.

The text below walks through data of patent publication US7582622B2 (N.V. Organon, priority 2003, dated 2009).

As to `CC1CC2=CC(=O)CCC2C2CCC3(C)C(CCCC3(C)O)C12` [Cpd of Example 1, (7α,17aβ)-17a-hydroxy-7,17a-dimethyl-D-homoestr4-en-3-one], the “Androgenic Activity (%)” value in data set [1] was found to be 42.9%. For the same compound, the “LH-Suppression MAD po” value in the data set with serum LH is recorded as 8.5 mg/kg. Besides, the “Mean proportional difference in bone density” value in data set [2] (8 mg/kg p.o. 6 weeks) was determined as 133%. Further, the “BMD (gmean ± sem)” value in data set [2] (8 mg/kg p.o. once daily 6 weeks) is 255 ± 22. The “Progestational Activity (%)” value in data set [3] worked out at 53.3%.
With `CCC1(O)CCCC2C3C(C)CC4=CC(=O)CCC4C3CCC21C` [Cpd of Example 2, (7α,17aβ)-17aethyl-17a-hydroxy-7-methyl-D-homoestr-4en-3-one], the “Androgenic Activity (%)” value in data set [1] was 9.9%. In addition, in the data set on serum LH, the “LH-Suppression MAD po” value is recorded as 10 mg/kg. For the same compound, in data set [3], the “Progestational Activity (%)” value is on record as 29.7%.
On to `C[C@@H]1CC2=CC(=O)CC[C@@H]2[C@H]2CC[C@@]3(C)[C@@H](CC[C@]3(C)O)[C@@H]21` [Reference compound C, (7α,17β)-17-Hydroxy-7,17-dimethylestr-4-en-3-one], for which the “Androgenic Activity (%)” value in data set [1] is reported as 220%. Besides, the “oral activity (in words)” value in data set [4] is given as “orally active”. Further, in the data set with serum LH, the “LH-Suppression MAD po” value came out at 1.0 mg/kg. Further, the “liver toxicity (in words)” value in data set [5] is “severe liver toxicity”. In data set [3], the “Progestational Activity (%)” value worked out at 45%.
For the compound `CCC12CCC3C4CCC(=O)C=C4CCC3C1CCCC2O` [(17aβ)-13-ethyl-17a-hydroxy-D-homogon4-en-3-one], the “oral activity (in words)” value in the data set on serum LH is on record as “not orally active”.
On to `CC1(O)CCCC2C3CCC4=CC(=O)CCC4C3CCC21C` [Reference compound A, (17aβ)-17a-Hydroxy-17a-methyl-D-homoestr-4-en-3-one], for which, in data set [1], the “Androgenic Activity (%)” value worked out at 71.6%. Moreover, in the data set on serum LH, the “LH-Suppression MAD po” value was >30 mg/kg and the “oral activity (in words)” value was “low activity upon oral administration”. In data set [2] (16 mg/kg p.o. 6 weeks), the “Mean proportional difference in bone density” value amounted to 28%. Also, the “BMD (gmean ± sem)” value in data set [2] (16 mg/kg p.o. once daily 6 weeks) worked out at 133 ± 20. Moreover, the “prevention of trabecular bone mineral density (BMD) loss (in words)” value in data set [2] (statement in the introduction) is reported as “unable to prevent trabecular bone mineral density (BMD) loss”. For the same compound, in data set [3], the “Progestational Activity (%)” value is reported as 98.0% and the “progestagenic activity (in words)” value was “progestagenic activity”.
Consider `CC1CC2=CC(=O)CCC2C2CCC3(C)C(O)CCCC3C12` [Reference compound B, (7α,17aβ)-17a-Hydroxy-7-methyl-D-homoestr-4-en-3-one], for which the “Androgenic Activity (%)” value in data set [1] worked out at 25.3%. Moreover, the “androgenic activity (in words)” value in data set [1] (statement in the introduction, test not named) was “mixed androgenic and progestagenic profile”. Moreover, in the data set on serum LH, the “LH-Suppression MAD po” value is recorded as >30 mg/kg and the “oral activity (in words)” value was “not orally active”. For the same compound, in data set [3], the “Progestational Activity (%)” value was 10.6%; the “progestagenic activity (in words)” value is “mixed androgenic and progestagenic profile”.
Turning to `CCC12CCC3C4CCC(=O)C=C4CCC3C1CCCC2(C)O` [(17aβ)-13-ethyl-17a-hydroxy-17a-methyl-D-homogon-4-en-3-one], in the data set with serum LH, the “oral activity (in words)” value was “not orally active”.
On to `CCC1(O)CCCC2C3CCC4=CC(=O)CCC4C3CCC21CC` [(17aβ)13,17a-diethyl-17a-hydroxy-D-homogon-4-en-3-one], for which, in the data set with serum LH, the “oral activity (in words)” value is reported as “not orally active”.
